Laboratory results as given in ChEMBL document CHEMBL1135846, “In vivo active antimalarial isonitriles” (Bioorg Med Chem Lett, 2002).
≈ marks a conversion by molar mass, not a printed value.

What was measured:
Plasmodium falciparum = assay: In vitro antimalarial activity for Plasmodium falciparum NF54; type: functional
Mus musculus [1] = assay: Antimalarial activity of compound against multidrug-resistant strain of Plasmodium yoelii in 5 Swiss mice (Mus musculus) treated at a dose of 50 mg/kg/day; type: functional
Mus musculus [2] = assay: Antimalarial activity of compound against multidrug-resistant strain of Plasmodium yoelii in Swiss mice (Mus musculus) at a dose of 12.5 mg/kg/day (percent suppression on day 4); type: functional
Mus musculus [3] = assay: Antimalarial activity of compound against multidrug-resistant strain of Plasmodium yoelii in 5 Swiss mice (Mus musculus) treated at a dose of 6.25 mg/Kg/day; type: functional
Mus musculus [4] = assay: Number of mice alive on day 28 treated with a dose of 12.5 mg/kg/day; type: functional
[5] = Antimalarial activity of compound against multidrug-resistant strain of Plasmodium yoelii in Swiss mice (Mus musculus) at a dose of 100 mg/kg/day (percent suppression on day 4); toxic; type: organism-based; conditions: in vivo
Mus musculus [6] = assay: Number of mice alive on day 28 treated with a dose of 6.25 mg/kg/day; type: functional
Mus musculus [7] = assay: Number of mice alive on day 28 treated with a dose of 50 mg/kg/day; type: functional
Mus musculus [8] = assay: Mean survival time of animals was calculated after administering a dose of 50 mg/kg/day during 28-day observation period; type: functional
Mus musculus [9] = assay: Antimalarial activity of compound against multidrug-resistant strain of Plasmodium yoelii in Swiss mice (Mus musculus) at a dose of 50 mg/kg/day (percent suppression on day 4); type: functional
Mus musculus [10] = assay: Antimalarial activity of compound against multidrug-resistant strain of Plasmodium yoelii in 5 Swiss mice (Mus musculus) treated at a dose of 12.5 mg/Kg/day; type: functional
Mus musculus [11] = assay: Antimalarial activity of compound against multidrug-resistant strain of Plasmodium yoelii in 5 Swiss mice (Mus musculus) treated at a dose of 100 mg/kg/day; type: functional
Mus musculus [12] = assay: Antimalarial activity of compound against multidrug-resistant strain of Plasmodium yoelii in Swiss mice (Mus musculus) at a dose of 25 mg/kg/day (percent suppression on day 4); type: functional
Mus musculus [13] = assay: Mean survival time of animals was calculated after administering a dose of 6.25 mg/Kg/day during 28-day observation period; type: functional
Mus musculus [14] = assay: Number of mice alive on day 28 treated with a dose of 25 mg/kg/day; type: functional
Mus musculus [15] = assay: Mean survival time of animals was calculated after administering a dose of 25 mg/kg/day during 28-day observation period; type: functional
Mus musculus [16] = assay: In vivo antimalarial activity of compound against multidrug-resistant strain of Plasmodium yoelii in 5 Swiss mice (Mus musculus) treated at a dose of 25 mg/kg/day; type: functional
Mus musculus [17] = assay: Antimalarial activity of compound against multidrug-resistant strain of Plasmodium yoelii in Swiss mice (Mus musculus) at a dose of 6.25 mg/kg/day (percent suppression on day 4); type: functional
Mus musculus [18] = assay: Mean survival time of animals was calculated after administering a dose of 12.5 mg/kg/day during 28-day observation period; type: functional
Mus musculus [19] = assay: Antimalarial activity of compound against multidrug-resistant strain of Plasmodium yoelii in Swiss mice (Mus musculus) at a dose of 100 mg/kg/day (percent suppression on day 4); type: functional
Mus musculus [20] = assay: Antimalarial activity of compound against multidrug-resistant strain of Plasmodium yoelii in 5 Swiss mice (Mus musculus) at a dose of 100 mg/kg/day; type: functional
Mus musculus [21] = assay: Antimalarial activity of compound against multidrug-resistant strain of Plasmodium yoelii in 5 Swiss mice (Mus musculus) at a dose of 50 mg/kg/day; type: functional
Mus musculus [22] = assay: Antimalarial activity of compound against multidrug-resistant strain of Plasmodium yoelii in Swiss mice (Mus musculus) at a dose of 50 mg/kg/day (percent suppression on day 4-nil); type: functional, organism-based

C[C@@H]1CC[C@H]2[C@@H](C)C(=O)O[C@@H]3O[C@@]4(C)CC[C@@H]1[C@]32OO4 [ARTEMISININ]
MIC (Plasmodium falciparum): 0.03 µg/mL (≈ 0.106 µM)

[C-]#[N+]C12CC3CC(CC(C3)C1)C2
No. of mice cured (Mus musculus [1]): 2
Supression (Mus musculus [2]): 73%
MIC (Plasmodium falciparum): 0.4 µg/mL (≈ 2.48 µM)
No. of mice cured (Mus musculus [3]): 0
Survival (Mus musculus [4]): 0
Supression [5]: Toxic
Survival (Mus musculus [6]): 0
Survival (Mus musculus [7]): 2
MST (Mus musculus [8]): 16.3
Supression (Mus musculus [9]): 100%
No. of mice cured (Mus musculus [10]): 0
No. of mice cured (Mus musculus [11]): 0
Supression (Mus musculus [12]): 99.8%
MST (Mus musculus [13]): 8.2
Survival (Mus musculus [14]): 1
MST (Mus musculus [15]): 12.8
No. of mice cured (Mus musculus [16]): 0
Supression (Mus musculus [17]): 19%
MST (Mus musculus [18]): 11.8

[C-]#[N+]C1CC[C@@]2(C)[C@@H](CC[C@@H]3[C@@H]2CC[C@]2(C)[C@@H]([C@H](C)CCCC(C)C)CC[C@@H]32)C1 (some centres not stated)
MIC (Plasmodium falciparum): > 50 µg/mL

[C-]#[N+]c1cccc2ccccc12
MIC (Plasmodium falciparum): 50 µg/mL (≈ 326 µM)

[C-]#[N+]c1ccc(-c2ccccc2)cc1
No. of mice cured (Mus musculus [1]): 0
MIC (Plasmodium falciparum): 1 µg/mL (≈ 5.58 µM)
Supression (Mus musculus [19]): 62.79%
Supression (Mus musculus [9]): 32.98%
No. of mice cured (Mus musculus [11]): 0

[C-]#[N+]C1C[C@H](C)CC[C@H]1C(C)C (some centres not stated)
MIC (Plasmodium falciparum): 50 µg/mL (≈ 303 µM)

[C-]#[N+][C@H]1CC[C@@]2(C)[C@@H](CC[C@@H]3[C@@H]2CC[C@]2(C)[C@@H]([C@H](C)CCCC(C)C)CC[C@@H]32)C1
MIC (Plasmodium falciparum): > 50 µg/mL

[C-]#[N+]c1ccc(C(C)=O)cc1
MIC (Plasmodium falciparum): 2 µg/mL (≈ 13.8 µM)
Supression (Mus musculus [19]): 35.72%
No. of mice cured (Mus musculus [20]): 0
No. of mice cured (Mus musculus [21]): 0
Supression (Mus musculus [22]): Nil

[C-]#[N+]c1ccc2c(c1)Cc1ccccc1-2
No. of mice cured (Mus musculus [1]): 0
MIC (Plasmodium falciparum): 2 µg/mL (≈ 10.5 µM)
Supression (Mus musculus [19]): 21.35%
Supression (Mus musculus [9]): 6.34%
No. of mice cured (Mus musculus [11]): 0

CCN(CC)CCCC(C)Nc1ccnc2cc(Cl)ccc12 (configuration not stated) [CHLOROQUINE]
MIC (Plasmodium falciparum): 0.04 µg/mL (≈ 0.125 µM)

[C-]#[N+]c1ccc2ccccc2c1
MIC (Plasmodium falciparum): 50 µg/mL (≈ 326 µM)

[C-]#[N+]c1ccc(Br)cc1Br
MIC (Plasmodium falciparum): 50 µg/mL (≈ 192 µM)
